Experimental data reported in US20210085640A1, “ACYLATED CATECHIN POLYPHENOLS AND METHODS OF THEIR USE FOR THE TREATMENT OF CANCER” (Flagship Pioneering Innovations V, Inc., priority 2018, published 2021).

Legend:
Type in all cases: cell-based
T24 bladder cancer cells = assay: Cancer cell survival (CellTiter-Glo), T24; settings: 72 h
How it was run: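 Viability by CellTiter-Glo after 72 h compound treatment of T24 bladder cancer cells (4×10^3/well, plated the night before), nine concentration levels in triplicate. Percent survival normalised to untreated cells minus medium background, from which IC50 was determined.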

[1] = test system: Daudi lymphoma cancer cells; assay: Cancer cell survival (CellTiter-Glo), Daudi; settings: 72 h
How it was run: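 Daudi cells (4×10^3/well) were exposed for 72 h at 37 °C to nine concentrations of compound, added as 10× solutions spanning 1 μM–10 mM (fatty acids) or 100 nM–1 mM (others). CellTiter-Glo luminescence gave % survival versus untreated, medium-blank corrected; IC50 derived.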

MCF7 breast cancer cells = assay: Cancer cell survival (CellTiter-Glo), MCF7; settings: 72 h
How it was run: (§1)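 Luminescent ATP read-out (CellTiter-Glo) after 72 h compound exposure at 37 C/5% CO2. Survival % is calculated against untreated cells minus medium background, and IC50 is taken from nine concentrations run in triplicate. Plating density was 4×10^3 cells/well with overnight attachment beforehand.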

[2] = test system: HCT 116 colorectal cancer cells; assay: Cancer cell survival (CellTiter-Glo), HCT 116; settings: HCT 116 cells, 72 h
How it was run: as §1

A549 lung cancer cells = assay: Cancer cell survival (CellTiter-Glo), A549; settings: 72 h
How it was run: as §1

[3] = test system: PC-3 prostate cancer cells; assay: Cancer cell survival (CellTiter-Glo), PC-3; settings: PC-3 cells, 72 h
How it was run: as §1

A-431 skin cancer cells = assay: Cancer cell survival (CellTiter-Glo), A-431; design: Cell survival at given concentration: unit not given here; settings: A-431 cells, 72 h
How it was run: as §1

AGS stomach cancer cells = assay: Cancer cell survival (CellTiter-Glo), AGS; design: Cell survival at given concentration: unit not given here
How it was run: as §1

CC(=O)O [acetate]
Cell survival at given concentration (T24 bladder cancer cells; 1 μM, Table 3.2): 0.97 | Cell survival at given concentration (T24 bladder cancer cells; 3 μM, Table 3.2): 0.97 | Cell survival at given concentration (T24 bladder cancer cells; 10 μM, Table 3.2): 1.04 | Cell survival at given concentration (T24 bladder cancer cells; 32 μM, Table 3.2): 0.97 | Cell survival at given concentration (T24 bladder cancer cells; 100 μM, Table 3.2): 1.00 | Cell survival at given concentration (T24 bladder cancer cells; 317 μM): 1.01 | Cell survival at given concentration (T24 bladder cancer cells; 1 mM): 0.99 | Cell survival at given concentration (T24 bladder cancer cells; 3 mM): 0.97 | Cell survival at given concentration (T24 bladder cancer cells; 10 mM): 0.91 | Cell survival at given concentration ([1]; 1 μM, Table 4.2): 1.00 | Cell survival at given concentration ([1]; 3 μM, Table 4.2): 0.99 | Cell survival at given concentration ([1]; 10 μM, Table 4.2): 0.99 | Cell survival at given concentration ([1]; 32 μM, Table 4.2): 1.01 | Cell survival at given concentration ([1]; 100 μM, Table 4.2): 1.02 | Cell survival at given concentration ([1]; 317 μM): 1.02 | Cell survival at given concentration ([1]; 1 mM): 1.01 | Cell survival at given concentration ([1]; 3 mM): 0.97 | Cell survival at given concentration ([1]; 10 mM): 0.75 | Cell survival at given concentration (MCF7 breast cancer cells; 1 μM, Table 5.2): 1.01 | Cell survival at given concentration (MCF7 breast cancer cells; 3 μM, Table 5.2): 1.02 | Cell survival at given concentration (MCF7 breast cancer cells; 10 μM, Table 5.2): 0.98 | Cell survival at given concentration (MCF7 breast cancer cells; 32 μM, Table 5.2): 1.03 | Cell survival at given concentration (MCF7 breast cancer cells; 100 μM, Table 5.2): 1.02 | Cell survival at given concentration (MCF7 breast cancer cells; 317 μM): 1.04 | Cell survival at given concentration (MCF7 breast cancer cells; 1 mM): 0.99 | Cell survival at given concentration (MCF7 breast cancer cells; 3 mM): 0.99 | Cell survival at given concentration (MCF7 breast cancer cells; 10 mM): 0.91 | Cell survival at given concentration ([2]; 1 μM, Table 6.2): 1.01 | Cell survival at given concentration ([2]; 3 μM, Table 6.2): 1.03 | Cell survival at given concentration ([2]; 10 μM, Table 6.2): 1.03 | Cell survival at given concentration ([2]; 32 μM, Table 6.2): 1.03 | Cell survival at given concentration ([2]; 100 μM, Table 6.2): 1.06 | Cell survival at given concentration ([2]; 317 μM): 1.02 | Cell survival at given concentration ([2]; 1 mM): 1.02 | Cell survival at given concentration ([2]; 3 mM): 1.00 | Cell survival at given concentration ([2]; 10 mM): 0.84 | IC50 ([2]; Table 6.2): > 10 mM | Cell survival at given concentration (A549 lung cancer cells; 1 μM, Table 7.2): 1.00 | Cell survival at given concentration (A549 lung cancer cells; 3 μM, Table 7.2): 1.01 | Cell survival at given concentration (A549 lung cancer cells; 10 μM, Table 7.2): 1.00 | Cell survival at given concentration (A549 lung cancer cells; 32 μM, Table 7.2): 1.06 | Cell survival at given concentration (A549 lung cancer cells; 100 μM, Table 7.2): 1.09 | Cell survival at given concentration (A549 lung cancer cells; 317 μM): 1.02 | Cell survival at given concentration (A549 lung cancer cells; 1 mM): 1.03 | Cell survival at given concentration (A549 lung cancer cells; 3 mM): 1.03 | Cell survival at given concentration (A549 lung cancer cells; 10 mM): 1.00 | Cell survival at given concentration ([3]; 1 μM, Table 8.2): 1.05 | Cell survival at given concentration ([3]; 3 μM, Table 8.2): 1.00 | Cell survival at given concentration ([3]; 10 μM, Table 8.2): 1.02 | Cell survival at given concentration ([3]; 32 μM, Table 8.2): 1.03 | Cell survival at given concentration ([3]; 100 μM, Table 8.2): 1.07 | Cell survival at given concentration ([3]; 317 μM): 1.05 | Cell survival at given concentration ([3]; 1 mM): 1.01 | Cell survival at given concentration ([3]; 3 mM): 1.00 | Cell survival at given concentration ([3]; 10 mM): 0.88 | IC50 ([3]; Table 8.2): > 10 mM | Cell survival at given concentration (A-431 skin cancer cells; 1 μM, Table 9.2): 1.02 | Cell survival at given concentration (A-431 skin cancer cells; 3 μM, Table 9.2): 1.03 | Cell survival at given concentration (A-431 skin cancer cells; 10 μM, Table 9.2): 1.06 | Cell survival at given concentration (A-431 skin cancer cells; 32 μM, Table 9.2): 1.03 | Cell survival at given concentration (A-431 skin cancer cells; 100 μM, Table 9.2): 1.05 | Cell survival at given concentration (A-431 skin cancer cells; 317 μM): 1.05 | Cell survival at given concentration (A-431 skin cancer cells; 1 mM): 1.05 | Cell survival at given concentration (A-431 skin cancer cells; 3 mM): 1.02 | Cell survival at given concentration (A-431 skin cancer cells; 10 mM): 0.99 | Cell survival at given concentration (AGS stomach cancer cells; 1 μM, Table 10.2): 0.99 | Cell survival at given concentration (AGS stomach cancer cells; 3 μM, Table 10.2): 1.00 | Cell survival at given concentration (AGS stomach cancer cells; 10 μM, Table 10.2): 1.02 | Cell survival at given concentration (AGS stomach cancer cells; 32 μM, Table 10.2): 1.03 | Cell survival at given concentration (AGS stomach cancer cells; 100 μM, Table 10.2): 1.03 | Cell survival at given concentration (AGS stomach cancer cells; 317 μM): 1.03 | Cell survival at given concentration (AGS stomach cancer cells; 1 mM): 1.02 | Cell survival at given concentration (AGS stomach cancer cells; 3 mM): 1.03 | Cell survival at given concentration (AGS stomach cancer cells; 10 mM): 1.02
